Experimental data from ChEMBL document CHEMBL1138898 (Bioorg Med Chem Lett, 2006).

Tested on: Mus musculus
Test: Protection of DBA/2 mouse against audiogenic-induced tonic seizure at 30 mg/kg, po after 2 hrs
Type: functional

Compound	Activity [%]
CCC(CC)CC(CN)c1nnn[nH]1 (stereo not given)	100
CC(C)CC(CN)c1nnn[nH]1 (stereo not given)	80
CC(C)C[C@H](CN)CC(=O)O [PREGABALIN]	100

Tested on: Mus musculus
Test: Protection of DBA/2 mouse against audiogenic-induced tonic seizure at 30 mg/kg, po after 1 hr
Type: functional

Compound	Activity [%]
CCC(CC)CC(CN)c1nnn[nH]1 (stereo not given)	60
CC(C)CC(CN)c1nnn[nH]1 (stereo not given)	40
CC(C)C[C@H](CN)CC(=O)O [PREGABALIN]	100

Target: not listed separately
Test: Binding affinity to alpha-2delta calcium channel

Compound	Ki [nM]
CCCC(CCC)CC(CN)c1nnn[nH]1 (stereo not given)	280
NCCc1nnn[nH]1	> 10000
NCC(c1ccccc1)c1nnn[nH]1 (stereo not given)	> 10000
CC(C)C(CN)c1nnn[nH]1 (stereo not given)	130
CC(C)CCC(CN)c1nnn[nH]1 (stereo not given)	210
NCC(CCCCc1ccccc1)c1nnn[nH]1 (stereo not given)	130
CC(C)(CN)c1nnn[nH]1	> 10000
NCC(Cc1ccccc1)(Cc1ccccc1)c1nnn[nH]1	> 10000
CC(CN)(Cc1ccccc1)c1nnn[nH]1 (stereo not given)	900
NCC(CCCCCc1ccccc1)c1nnn[nH]1 (stereo not given)	500
CC(CN)(Cc1cccc(C(F)(F)F)c1)c1nnn[nH]1 (stereo not given)	160
NCC(CCc1ccccc1)c1nnn[nH]1 (stereo not given)	3100
NCC(CC1CCCCC1)c1nnn[nH]1 (stereo not given)	570
CC(C)C1CC1(CN)c1nnn[nH]1 (stereo not given)	190
CCCCCCC(CN)c1nnn[nH]1 (stereo not given)	330
CCC(CC)C1CC1(CN)c1nnn[nH]1 (stereo not given)	4000
NCC1(c2nnn[nH]2)CC12CCCCC2 (stereo not given)	33
NCC(c1nnn[nH]1)C1CCCCC1 (stereo not given)	150
NCC(Cc1ccccc1)c1nnn[nH]1 (stereo not given)	7600
NCC(CCCc1ccccc1)c1nnn[nH]1 (stereo not given)	2100
CC(CN)(Cc1ccc(F)c(F)c1)c1nnn[nH]1 (stereo not given)	520
CCC(CC)CC(CN)c1nnn[nH]1 (stereo not given)	11
NCC(c1nnn[nH]1)C1CCCC1 (stereo not given)	18
CC(C)CC(CN)c1nnn[nH]1 (stereo not given)	17
